Test: gradient 5% acetonitrile 3 min, to 50% in 2 min, to 85% in 15 min, held 3 min, 100 µL/min
Conditions: column: Zorbax Extend-C18 2.1 x 50 mm; eluents: water / acetonitrile, 0.1% formic acid
Method in brief: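 Retention times come from adduct peaks that were picked computationally and then checked by hand. The standards, pure and pooled in mixtures of ~100 molecules, were run on a Zorbax Extend-C18 column (2.1 × 50 mm, 1.8 μm) at 100 μL/min with water and acetonitrile, each with 0.1% formic acid. Detection was by quadrupole time-of-flight mass spectrometry in positive and negative ionization mode, with a dead volume of 40 μL and a dwell volume of 900 μL.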

| SMILES | RP-LC retention time [s] |
| --- | --- |
| Fc1ccc(-c2nc(-c3cccc(-c4ccn[nH]4)c3)no2)cc1 | 1000 |
| CCC(C)NC(=O)c1cc(COc2ccc(NC(=O)CC(C)C)cc2)on1 (stereo not drawn) | 871 |
| O=C(NCCc1csc(-c2ccccc2)n1)C1CCN(S(=O)(=O)c2ccccc2F)CC1 | 893 |
| Cc1cc2[nH]c(C(=O)Nc3cccc(Cl)c3C)c(CN3CCOCC3)c2s1 | 748 |
| COc1cccc(N2CCCn3c2nc2c3c(=O)n(Cc3c(F)cccc3Cl)c(=O)n2C)c1 | 966 |
| Cc1ccc(CN2CC(F)(F)C[C@H]2c2nnc(-c3cnccn3)o2)c(C)c1 | 990 |
| COc1cccc(NC(=O)Cn2nc3cc(C)nc(Nc4ccc(C)c(C)c4)n3c2=O)c1 | 1100 |
| Cc1ccc2oc(C(=O)NCc3ccc4c(c3)OCO4)cc2n1 | 635 |
| CC1CCN(C(=O)CN2C(=O)COc3ccc(C(=O)N4CCCCC4)cc32)CC1 | 716 |
| CNC(=O)C1CCCN1C(=O)Nc1ccc(C)cc1 (stereo not drawn) | 640 |
| CNC(=O)c1sc(-c2ccccc2)nc1C | 726 |
| C[C@@H](NC(=O)c1ncnc(N)c1Cl)c1ncc(C(=O)Nc2cc(C(F)(F)F)c(Cl)cn2)s1 | 913 |
| O=C(O)c1ccccc1C(=O)NCC1COc2ccccc2O1 (stereo not drawn) | 708 |
| Cc1[nH]c(C(=O)N2CCC(CC(=O)NC(C)C)CC2)c(C)c1C(=O)OC(C)C | 713 |
| Cc1noc(-c2ccnc(-n3cnc(C(=O)N(C)C4CCCCC4)c3)c2)n1 | 737 |
| CCOC(=O)CNC(=O)NCc1cccn1Cc1ccccc1F | 772 |
| O=C(CN1CCc2ccccc2C1C(=O)N1CCCCC1)NCc1ccc(F)c(Cl)c1 (stereo not drawn) | 936 |
| CN(C)C(=O)c1ccc2c(c1)N(CC(=O)NC1CCCCCCC1)C(=O)CS2 | 769 |
| CN1C(=O)c2cc(C(=O)N3CCC(C(N)=O)CC3)nn2CC1(C)C(=O)NC1CCCC1 (stereo not drawn) | 888 |
| COc1ccccc1OCC1c2ccsc2CCN1C(=O)CN(C(=O)NC(C)C)C(C)(C)C (stereo not drawn) | 595 |

| SMILES | RP-LC retention time [s] |
| --- | --- |
| COc1ccc2cc(C(=O)N3CCC(C(C)C(=O)NCCc4c[nH]c5ccccc45)CC3)[nH]c2c1 (stereo not drawn) | 818 |
| CC(=O)Nc1nc(N2CCC(C(=O)NCc3ccccc3)CC2)sc1C(=O)N1CCCC1 | 699 |
| O=S(=O)(c1ccccc1)N1CCC(CCOc2ccccc2)C1 (stereo not drawn) | 754 |
| CCOC(=O)CNC(=O)N1CC(CC)Oc2ccc(C)cc21 (stereo not drawn) | 935 |
| O=C(NCc1ccc2c(c1)OCO2)C1COC2(CCCCC2)N1C(=O)c1cccc(F)c1 (stereo not drawn) | 845 |
| Cc1cc(F)ccc1NS(=O)(=O)c1ccc(-c2c(C)noc2C)cc1 | 964 |
| O=C(N[C@H]1C[C@@H]2C[C@H]1CN2C(=O)c1ccc(OC(F)(F)F)cc1)c1ccccc1 | 786 |
| Cc1nc(-c2cc(S(=O)(=O)N(C)C3CCCCC3)cn2C)sc1C(=O)N1CCCC1 | 959 |
| O=C1CC(c2cc(F)cc(F)c2)Cc2nc(N3CCN(c4ccc(F)cc4)CC3)ncc21 (stereo not drawn) | 719 |
| O=C1CC(NC(=O)C2c3ccccc3Oc3ccccc32)CN1 (stereo not drawn) | 638 |
| Cc1cccc(-c2noc(-c3nnn(Cc4nc(-c5cccc(Cl)c5)oc4C)c3C)n2)c1 | 1000 |
| COCCNC(=O)CN1c2ccccc2NC2=C(C(=O)CC(C)(C)C2)C1c1cccs1 (stereo not drawn) | 727 |
| CCC(C)N(CC(=O)N1CCc2sccc2C1COc1ccc(F)cc1)C(=O)COC (stereo not drawn) | 906 |
| CCOC(Cn1c(-c2ccc(OC)cc2)nc2ccccc21)OCC | 713 |
| CSc1cccc(NC(=O)c2cn3c(n2)CCCC3)c1 | 630 |
| Cc1noc2ncn(CC(=O)Nc3ccc(F)cc3F)c(=O)c12 | 744 |
| O=C(c1ccc(Br)cc1)N1CCc2nc[nH]c2C1 | 578 |
| CCc1nc2c(c(=O)n1CC(=O)NC1CCCC1)CN(Cc1ccccc1)CC2 | 621 |
| O=C(c1ccc(F)cc1)N1CCC(CCNS(=O)(=O)c2cc(F)ccc2F)CC1 | 870 |
| CN1CCN(C(=O)C2CCN(c3nc4ccc(-c5cccs5)nc4s3)CC2)CC1 | 646 |

| SMILES | RP-LC retention time [s] |
| --- | --- |
| Cc1nc(C(=O)NCc2ccccc2C(F)(F)F)c(C)o1 | 917 |
| Cc1cc(N2CCN(C(=O)c3cccc(F)c3)CC2)nc(N2CCCCC2)n1 | 670 |
| CCOc1ccc(C(=O)NC2(c3nc(C)no3)CCCCC2)cc1OCC | 903 |
| COc1ncc(C(=O)Nc2cccc(F)c2)c(C)n1 | 757 |
| COc1ccc(C2Cn3nc(-c4nc(C(C)(C)C)no4)cc3CO2)cc1 (stereo not drawn) | 611 |
| CC(=O)N1CCc2cc(N3CC(C(=O)Nc4ccc(F)cc4F)CC3=O)ccc21 (stereo not drawn) | 688 |
| O=C(Nc1ccccc1Br)C1CCCN(C(=O)c2ccccc2F)C1 (stereo not drawn) | 860 |
| COc1ccc(NC(=O)N2[C@H]3CC[C@@H]2c2cnc(C)nc2C3)cc1F | 671 |
| Cc1cccc(N2CCN(Cc3nc(-c4ccc(N5CCSCC5)nc4)no3)CC2)c1 | 1000 |
| CCOC(=O)c1[nH]c(C)c(CCC(=O)N2CCCC(C(=O)NC(C)C)C2)c1C (stereo not drawn) | 723 |
| Cc1cccc(NC(=O)N2CCCC2c2cc(C)no2)c1 (stereo not drawn) | 780 |
| C[C@@H]1CN(C(=O)c2cccs2)C[C@H]1c1nc(-c2ccccc2)no1 | 965 |
| COc1ccccc1-c1noc(-c2nnn3c2COC(c2ccc(C)cc2C)C3)n1 (stereo not drawn) | 1250 |
| Cc1ccc(CNC(=O)Cn2c(C)cc(-c3nnc(-c4ccc(F)cc4)o3)c2C)o1 | 919 |
| Cc1ccccc1-c1noc(C2CCCN2S(=O)(=O)c2ccc3c(c2)CCCC3)n1 (stereo not drawn) | 1340 |
| O=C1CCCCC(Cc2ccccc2)(C(=O)O)N1 (stereo not drawn) | 652 |
| CC(C(=O)Nc1ccc(Cl)cc1F)C1CCN(C(=O)Nc2ccc(Cl)cc2)CC1 (stereo not drawn) | 1020 |
| CCS(=O)(=O)N1C[C@@H](COC)[C@H](c2ccccn2)C1 | 585 |

The remaining lines, values ahead:

| RP-LC retention time [s] | SMILES |
| --- | --- |
| 731 | Cc1noc(C)c1CCNC(=O)c1ccc2ccnc(N3CCN(c4ccc(F)cc4)CC3)c2c1 |
| 1040 | Cc1ccc(-c2noc(C3CCCN3C(=O)C3CC(=O)N(c4cccc(Cl)c4)C3)n2)cc1 (stereo not drawn) |
| 1190 | Cc1cccc(Nc2nc(-c3ccc([N+](=O)[O-])cc3)cs2)c1 |
| 859 | COc1ccc(NC(=O)Cn2nc3c(Oc4cccc(Cl)c4)nccn3c2=O)cc1 |
| 720 | CCn1cc(-c2nc(CC(=O)Nc3ccc(F)cc3Cl)cs2)c2cccnc21 |
| 707 | Cc1ccc(Nc2ncccc2C(=O)O)cc1C |
| 870 | CCN1C(=O)c2cccnc2Sc2cc(NC(=O)c3cccc(C)c3)ccc21 |
| 744 | O=C(c1cccc(F)c1)N1CCC(n2c(-c3ccco3)nc3cccnc32)C1 (stereo not drawn) |
| 966 | O=C(Nc1ccc2c(c1)OCCO2)N1c2ccccc2CC1c1nc(C2CC2)no1 (stereo not drawn) |
| 958 | O=C(Nc1ccc(OCc2nnc(-c3ccc(Cl)cc3)o2)cc1)c1ccsc1 |
| 685 | O=c1ccn(-c2ccccc2)nc1-c1nc(-c2ccccn2)no1 |
| 874 | CCOC(=O)c1nn(-c2ccccc2C)c(=O)cc1NCc1ccc2c(c1)OCO2 |
| 1170 | COc1cccc(-n2c(=O)c(C(=O)NCc3cccs3)c(O)c3cccnc32)c1 |
| 926 | CC(C)n1nc(CNC(=O)c2ccc(Br)o2)c2ccccc21 |
| 652 | O=C(CCc1c(-c2ccccc2)nc2ccccn12)NCc1ccccc1F |
| 685 | CC(=O)Nc1c(C)nn(-c2ccc(Cl)cc2)c1N1CCC(C(=O)NCc2ccco2)CC1 |
| 904 | CCOc1ccc(NC(=O)N2CCC3(CC2)NC(=O)c2ccc(Cl)cc2N3C)cc1 |
| 834 | COc1ccc(CCC(=O)Nc2c(C(=O)N3CCN(c4ccccn4)CC3)oc3ccccc23)cc1 |
| 922 | O=C(Nc1cc(C(F)(F)F)ccc1Cl)c1ccc2ncsc2c1 |
| 843 | CCOc1cccc(NC2=NS(=O)(=O)c3ccccc32)c1 |
| 923 | O=C(c1cc2ccccc2[nH]1)N1CCN(c2cc(-c3ccc(Cl)cc3)[nH]n2)CC1 |
| 804 | CC(=O)c1ccc(Nc2ncnc3c2cnn3-c2ccccc2Cl)cc1 |
| 1160 | COc1ccc(NC(=O)Cc2c(C)nn(-c3nc(-c4ccccc4)cs3)c2C)c(OC)c1 |
| 997 | Cc1ccccc1Nc1c(-c2c(F)cccc2Cl)nc2ccc(Br)cn12 |
| 987 | Cn1c(=O)n(CC(=O)N2CCCCCC2)c(=O)c2cnc(-c3ccccc3)nc21 |
| 675 | O=C(COc1ccccc1F)NCCn1nc(-c2ccco2)ccc1=O |
| 794 | CC(C)(Oc1ccc(Cl)cc1)C(=O)Nc1ccc(-c2cn3cccnc3n2)cc1 |
| 1060 | Cn1c(=O)oc2cc(-c3noc(/C=C/c4ccccc4)n3)ccc21 |
| 693 | Cc1cc2c(=O)n(CC(=O)NCc3ccc(F)cc3)c3cccnc3n2n1 |
| 727 | O=C(CCNc1c(-c2ccc(F)cc2)nc2cnccn12)Nc1ccc2c(c1)OCO2 |

Reference: the METLIN SMRT retention time set (Domingo-Almenara et al. 2019)
